Results published in publication PMC4409337, “Immucillins Impair Leishmania (L.) infantum chagasi and Leishmania (L.) amazonensis Multiplication In Vitro” (PLoS ONE, 2015).

Key:
[1] = target: T1, Nucleoside hydrolase NH36 (Leishmania donovani, UniProt Q8WQX2); assay: Ki determination: inhibition of NH36 activity by immucillins; type: biochemical, Leishmania (L.) donovani; conditions: 10 mM inosine as substrate, 0.5 nM NH36, pH 7.4, room temperature
T1 sequence (Q8WQX2 1-314): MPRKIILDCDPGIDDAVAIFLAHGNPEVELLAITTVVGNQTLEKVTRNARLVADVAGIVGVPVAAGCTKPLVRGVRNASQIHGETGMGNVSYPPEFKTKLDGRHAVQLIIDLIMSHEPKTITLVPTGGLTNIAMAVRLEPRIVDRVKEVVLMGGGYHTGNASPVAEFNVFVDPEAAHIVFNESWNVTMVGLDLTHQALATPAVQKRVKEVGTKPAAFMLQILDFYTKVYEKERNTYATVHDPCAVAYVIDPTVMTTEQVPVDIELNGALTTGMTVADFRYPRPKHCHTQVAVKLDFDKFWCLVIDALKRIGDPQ
Protocol: BL21DE3 E.coli were transformed with the synthetic plasmid pET 28b encoding the gene of NH36 of Leishmania (L.) donovani (EMBL, Genbank and DDJB data bases, access number AY007193) with a His6tag at the C-terminal. Expression was induced with 0.5 mM IPTG and overnight incubation at 20°C. Purification of NH36 was performed on a column of Ni-NTA Superflow resin (Qiagen, USA) eluted by a stepwise imidazole gradient and monitored by SDS-polyacrylamide gel electrophoresis and protein assay. The extinction coefficient of NH36 is 21.437 mM^-1 cm^-1 at 280 nm, as calculated with the ProtParam program from ExPASy, and was used to estimate protein concentration (http://ca.expasy.org/seqanalref/). The yield of NH36 after purification was 11.87 mg per Liter of bacterial growth culture. Non-specific His-proteins with weak interactions were eluted with 50–100 mM imidazole (S1 Fig). The purified NH36 started to elute with 150 mM imidazole. We used 250 mM of imidazol in elution buffer for purification of NH36.
The reaction mixtures contained 10 mM inosine as substrate, 50 mM Hepes (pH 7.4), 100 mM KCl, 5 mM DTT and 1 unit XOD. The hydrolysis of inosine to hypoxanthine and ribose was followed by continuous reading of optical absorbance at 293 nm, using variable concentrations of inhibitors in a CARY 300UV-visible spectrophotometer. Controls without enzyme and without inhibitors were included in all inhibition assays. The inhibition constant for each immucillin was obtained, using GraFit 5 (Erithacus Software), by fitting initial rates with variable inhibitor concentrations to the equation (vi/v0 = [S] / Km + [S] + Km[I] / Ki), where v i is the initial rate in the presence of the inhibitor, v 0 is the initial rate in the absence of the inhibitor, K m is the Michaelis constant for inosine, [S] and [I] are inosine and inhibitor concentrations, respectively, and Ki is the inhibition constant.

[2] = system: L. (L.) amazonensis promastigotes; assay: In vitro growth of promastigotes in FBS supplemented Schneider's insect medium; type: cell-based, Leishmania (L.) amazonensis; conditions: Leishmania amazonensis
Source text: The strain of Leishmania (L.) infantum chagasi MHOM/BR/1974/PP75 was obtained from the Leishmania Type Culture Collection (Fundacão Oswaldo Cruz, Rio de Janeiro, RJ, Brazil) and the strain of Leishmania (L.) amazonensis (MHOM/BR/1975/Josefa) was kindly given by Professor Rosâ[…] from Universidade Federal do Rio de Janeiro. Promastigotes were maintained by weekly transfers in screw-capped glass tubes containing Schneider's insect medium (Sigma Aldrich, MO, USA), pH 7.0, supplemented with 10% Fetal Bovine Serum (FBS) at 26°C. Stock solutions (20 mM) of immucillins IA […] prepared using Milli-Q purified water. Log phase promastigotes of L. (L.) infantum chagasi and L. […] Promastigotes were recorded in a Neubauer chamber after 24, 48, 72 and 96 hours of incubation at 26°C. […] We also assayed the possibility of reversing the inhibitory effect of IA in RPMI medium by the addition of adenosine to the culture medium. The concentration of adenosine in Schneider s insect serum supplemented medium was assessed by HPLC using a C-18 reverse-phase column as described.

[3] = system: L. (L.) infantum chagasi promastigotes; assay: as above; type: cell-based, Leishmania (L.) infantum chagasi; conditions: Leishmania infantum
Source text: The strain of Leishmania (L.) infantum chagasi MHOM/BR/1974/PP75 was obtained from the Leishmania Type Culture Collection (Fundacão Oswaldo Cruz, Rio de Janeiro, RJ, Brazil) and the strain of Leishmania (L.) amazonensis (MHOM/BR/1975/Josefa) was kindly given by Professor Rosâ[…] from Universidade Federal do Rio de Janeiro. Promastigotes were maintained by weekly transfers in screw-capped glass tubes containing Schneider's insect medium (Sigma Aldrich, MO, USA), pH 7.0, supplemented with 10% Fetal Bovine Serum (FBS) at 26°C. […] Log phase promastigotes of L. (L.) infantum chagasi and L. […] Promastigotes were recorded in a Neubauer chamber after 24, 48, 72 and 96 hours of incubation at 26°C. […] The concentration of adenosine in Schneider s insect serum supplemented medium was assessed by HPLC using a C-18 reverse-phase column as described.

[4] = system: L. (L.) infantum chagasi promastigotes; assay: Promastigote multiplication in chemically defined RPMI medium; type: cell-based, Leishmania (L.) infantum chagasi
Protocol: Stock solutions (20 mM) of immucillins IA […] prepared using Milli-Q purified water. Log phase promastigotes of L. (L.) infantum chagasi and L. […] Promastigotes were recorded in a Neubauer chamber after 24, 48, 72 and 96 hours of incubation at 26°C. […] We also assayed the possibility of reversing the inhibitory effect of IA in RPMI medium by the addition of adenosine to the culture medium. The concentration of adenosine in Schneider s insect serum supplemented medium was assessed by HPLC using a C-18 reverse-phase column as described.

[5] = system: intracellular amastigotes of L. (L.) infantum chagasi; assay: Replication of intracellular amastigotes in infected peritoneal macrophages (phagocytic index); type: cell-based, Leishmania (L.) infantum chagasi
Protocol: […] […] The amastigote growth was assessed 24 h after the last drug addition, on 200 cells in Giemsa stained coverslips and expressed as phagocytic index = percent of infected macrophages x average number of intracellular amastigotes. […] All experiments with mice were reviewed and approved by the Animal Care and Use Committee of the Instituto de Biofísica Carlos Chagas Fo.-UFRJ (CAUAP-CONCEA, Brazil, IMPPG-016) and were performed according to the guidelines of the National Institutes of Health, USA. We made all efforts in order to minimize animal suffering.

For `Nc1ncnc2c(C3N[C@H](CO)[C@@H](O)[C@H]3O)c[nH]c12` (stereo partly drawn) [IA], the Ki [1] was 0.08 µM, the inhibition at 500 µM ([2]; 500 μM, after 96 h of culture, read-out: percent inhibition on L. (L.) amazonensis replication) was 76% and the IC50 ([2]; single addition at 0 h, evaluated after 48 hours, 26°C, read-out: IC50 (CI 95%) on L. (L.) amazonensis promastigotes in vitro growth) was 48.7 µM. The IC50 ([3]; drugs added at 0, 24 and 48 h, after 48h, read-out: IC50 on promastigote growth, daily addition) was 3.6 µM, the IC50 ([3]; drugs added at 0, 24 and 48 h, at 72 and 96 h, read-out: IC50 on promastigote growth, daily addition) was < 0.05 µM and the IC50 ([3]; single addition at 0 h, evaluated after 48 hours, 26°C, read-out: IC50 (CI 95%) on L. (L.) infantum chagasi promastigotes in vitro growth) was 23.9 µM. For the same compound, the inhibition at 500 µM ([3]; 500 μM, after 96 h of culture, read-out: percent inhibition on L. (L.) infantum chagasi promastigote growth) was 78%, the inhibition at 10 µM ([4]; Leishmania infantum, 10 μM, 72 h, compared to RPMI with no addition) was 38% and the inhibition at 50 µM ([4]; Leishmania infantum, 50 μM, 72 h, compared to RPMI with no addition) was 46%. The IC50 ([4]; Leishmania infantum, RPMI medium lacking nucleosides or nucleobases, 72 h) was 75 µM, the “reversal of growth inhibition by adenosine” value ([4]; RPMI with 50 μM IA and 50-500 μM adenosine, 72h) was “can be reversed by the presence of exogenous adenosine” and the “reduction in the number of intracellular amastigotes” value ([5]; 10 μM added daily at 0, 24 and 48 h) was 95%. The EC50 ([5]; Leishmania infantum, Peritoneal macrophage, drugs (0.5–10 μM) added at 0 h, incubation 24 h, linear interpolation, read-out: EC50 (CI 95%)) was 2.39 µM, the “decrease of intracellular amastigote parasite load” value ([5]; low micromolar concentrations, single to daily protocol) was 74–95% and the “reduction in the number of intracellular amastigotes” value ([5]; single 10 μM dose at 0 h, compared to untreated controls) was 74%.
